Experimental data as given in PMC10377566 (European journal of medicinal chemistry, 2022).
In brackets after ≈: the same amount, converted by molar mass. Several values for one entry are separate records, joined by “and”; a condition that tells them apart may be missing. Equal entries are not always repeated. Blank lines part the entries; values can stand above or below the molecule they belong to.

How the values were obtained:
[1] = HPLC-based kinetic solubility in DPBS; format: physicochemical; conditions: for improvement in solubility: compared to FiVe1, DPBS
HT-1080 cells = experiment: Cell proliferation assay; format: cell-based; conditions: for SI (HT-1080 vs MCF-7): selectivity index, ratio of IC50 values HT-1080 and MCF-7; for improvement in selectivity: cell type selectivity (vs MCF-7), compared to FiVe1
[2] = tested on: VIM-expressing sarcoma cell lines HT-1080, RD, GCT; format: cell-based; conditions: for improvement in potency: VIM-expressing sarcoma cell lines, compared to FiVe1
[3] = tested on: vimentin (VIM) Ser56 phosphorylation; experiment: Western blot of VIM Ser56 phosphorylation in HT-1080, RD and GCT sarcoma cells; format: cell-based; conditions: 24 h, HT-1080, RD and GCT cells
[4] = Pharmacokinetic study in mouse; format: in vivo
[5] = Metabolite identification in incubations with mouse hepatocytes; format: in vitro ADME; conditions: FiVe1 incubated with mouse hepatocytes, LC-MS/MS, peak area λ = 252–420 nm
[6] = tested on: VIM-expressing mesenchymal cancer cell lines; conditions: anti-proliferative effects compared with cells that lack VIM expression; cited from earlier work
panel of ~100 kinases = conditions: concentrations up to 10 μM; cited from earlier work
[7] = Metabolic stability in mouse liver microsomes; format: in vitro ADME, mouse (CD-1 Mouse)

solubility at 16 h ([1]; DPBS, pH 7.4): 68 µM (≈ 28.4 µg/mL)
improvement in solubility [1]: > 40 fold
Molecule: NCCOc1cc(Cl)cc(N2CCN(c3cnnc4c(Cl)cccc34)CC2)c1 [Compound 11a, 2-(3-chloro-5-(4-(8-chlorocinnolin-4-yl)piperazin-1-yl)phenoxy)ethan-1-amine]
SI (HT-1080 vs MCF-7) (HT-1080 cells): >5

Molecule: COc1cc(OC)cc(N2CCN(c3cnnc4c(Cl)cccc34)CC2)c1 [Compound 4c, 8-chloro-4-(4-(3,5-dimethoxyphenyl)piperazin-1-yl)cinnoline]
improvement in potency [2]: > 20 fold
improvement in selectivity (HT-1080 cells): > 15 fold

Tlast ([4]; ip 1 mg/kg): 4 h
improvement in bioavailability ([4]; oral, compared to FiVe1, assuming dose proportional absorption): ~ 4 fold
Molecule: COc1cc(Cl)cc(N2CCN(c3cnnc4c(Cl)cccc34)CC2)c1 [Compound 4e, 8-chloro-4-(4-(3-chloro-5-methoxyphenyl)piperazin-1-yl)cinnoline]
VIM Ser56 phosphorylation (Western immunoblot) [3]: induce VIM Ser56 phosphorylation at 10-fold lower concentration (100 nM)
improvement in potency [2]: > 20 fold
improvement in selectivity (HT-1080 cells): > 10 fold and 19 fold and > 15 fold

improvement in solubility [1]: > 40 fold
Molecule: CN(C)CCOc1cc(Cl)cc(N2CCN(c3cnnc4c(Cl)cccc34)CC2)c1 [Compound 11b, 2-(3-chloro-5-(4-(8-chlorocinnolin-4-yl)piperazin-1-yl)phenoxy)-N,N-dimethylethan-1-amine]

Molecule: Nc1cc(Cl)cc(N2CCN(c3cnnc4c(Cl)cccc34)CC2)c1 [Compound 4i, 3-chloro-5-(4-(8-chlorocinnolin-4-yl)piperazin-1-yl)aniline]
improvement in potency [2]: ~ 2 fold
improvement in selectivity (HT-1080 cells): ~ 2 fold

Molecule: COC(=O)CCOc1cc(Cl)cc(N2CCN(c3cnnc4c(Cl)cccc34)CC2)c1 [Compound 11j, methyl 3-(3-chloro-5-(4-(8-chlorocinnolin-4-yl)piperazin-1-yl)phenoxy)propanoate]
SI (HT-1080 vs MCF-7) (HT-1080 cells): >20

Molecule: COc1cccc(N2CCN(c3cnnc4c(Cl)cccc34)CC2)c1 [Compound 4d, 8-chloro-4-(4-(3-methoxyphenyl)piperazin-1-yl)cinnoline]
improvement in potency [2]: > 2 fold
improvement in selectivity (HT-1080 cells): > 2 fold

Molecule: Oc1cc(Cl)cc(N2CCN(c3cnnc4c(Cl)cccc34)CC2)c1 [Compound 4g, 3-chloro-5-(4-(8-chlorocinnolin-4-yl)piperazin-1-yl)phenol]
improvement in potency [2]: > 20 fold
improvement in selectivity (HT-1080 cells): > 10 fold

Molecule: C[C@H]1CN(c2cnnc3c(Cl)cccc23)CCN1c1cc(Cl)cc(Cl)c1 [Compound 7a, (S)-8-chloro-4-(4-(3,5-dichlorophenyl)-3-methylpiperazin-1-yl)cinnoline]
loss in antiproliferative potency ([2]; compared with its analog 4a): ~ 2 fold

Molecule: OCCOc1cc(Cl)cc(N2CCN(c3cnnc4c(Cl)cccc34)CC2)c1 [Compound 11d, 2-(3-chloro-5-(4-(8-chlorocinnolin-4-yl)piperazin-1-yl)phenoxy)ethan-1-ol]
improvement in potency [2]: > 3 fold
SI (HT-1080 vs MCF-7) (HT-1080 cells): >40

Molecule: Clc1cc(N2CCCC2)cc(N2CCN(c3cnnc4c(Cl)cccc34)CC2)c1 [Compound 4f, 8-chloro-4-(4-(3-chloro-5-(pyrrolidin-1-yl)phenyl)piperazin-1-yl)cinnoline]
inhibition of mesenchymal cancer cell growth (in words) [2]: total loss in activity

Molecule: Clc1cccc(N2CCN(c3ccnc4c(Cl)cccc34)CC2)c1 [Compound 10d, 8-chloro-4-(4-(3-chlorophenyl)piperazin-1-yl)quinoline]
VIM Ser56 phosphorylation (Western immunoblot) [3]: inactive

% Peak Area [5]: 6%
Tlast ([4]; po 25 mg/kg): 18 h
Molecule: Clc1cccc(N2CCN(c3cnnc4c(Cl)cccc34)CC2)c1 [FiVe1]
VIM Ser56 phosphorylation (Western immunoblot) [3]: induced Ser56 phosphorylation at 1 μM but not at 100 nM
cell-based therapeutic index [6]: > 10
kinase inhibition (panel of ~100 kinases): not found to be an inhibitor of any cell cycle or cytokinesis-related kinase

Molecule: COCCOc1cc(Cl)cc(N2CCN(c3cnnc4c(Cl)cccc34)CC2)c1 [Compound 11f, 8-chloro-4-(4-(3-chloro-5-(2-methoxyethoxy)phenyl)piperazin-1-yl)cinnoline]
SI (HT-1080 vs MCF-7) (HT-1080 cells): >12

IC50 (HT-1080 cells; Homo sapiens, HT-1080, 72 h, read-out: IC50 HT-1080): 13.6 ± 1.18 µM
Molecule: COC(COc1cc(Cl)cc(N2CCN(c3cnnc4c(Cl)cccc34)CC2)c1)OC [Compound 11g, 8-chloro-4-(4-(3-chloro-5-(2,2-dimethoxyethoxy)phenyl)piperazin-1-yl)cinnoline]
SI (HT-1080 vs MCF-7) (HT-1080 cells): >2

T1/2 ([7]; mouse liver microsomes): 42.7 min
Remaining (T= 60 min) ([7]; mouse liver microsomes, 60 min): 35.7%
CLint(mic) ([7]; mouse, microsomes): 32.5 µL/min/mg
Molecule: 3-(3-chloro-5-(4-(8-chlorocinnolin-4-yl)piperazin-1-yl)phenoxy)propane-1,2-diol [Compound 11e]

Molecule: O=C(O)CCOc1cc(Cl)cc(N2CCN(c3cnnc4c(Cl)cccc34)CC2)c1 [Compound 11k, 3-(3-chloro-5-(4-(8-chlorocinnolin-4-yl)piperazin-1-yl)phenoxy)propanoic acid]
SI (HT-1080 vs MCF-7) (HT-1080 cells): >13

Molecule: N#Cc1cc(Cl)cc(N2CCN(c3cnnc4c(Cl)cccc34)CC2)c1 [Compound 4b, 3-chloro-5-(4-(8-chlorocinnolin-4-yl)piperazin-1-yl)benzonitrile]
improvement in potency [2]: ~ 4 fold

Molecule: Clc1cc(Cl)cc(N2CCN(c3cnnc4c(Cl)cccc34)CC2)c1 [Compound 4a, 8-chloro-4-(4-(3,5-dichlorophenyl)piperazin-1-yl)cinnoline]
improvement in potency [2]: ~ 4 fold

IC50 ([2]; Homo sapiens, HT-1080, read-out: IC50 values): ~10 µM
Molecule: CC(=O)Nc1cc(Cl)cc(N2CCN(c3cnnc4c(Cl)cccc34)CC2)c1 [Compound 4j, N-(3-chloro-5-(4-(8-chlorocinnolin-4-yl)piperazin-1-yl)phenyl)acetamide]

improvement in solubility [1]: > 40 fold
Molecule: CN(C)CCCOc1cc(Cl)cc(N2CCN(c3cnnc4c(Cl)cccc34)CC2)c1 [Compound 11c, 3-(3-chloro-5-(4-(8-chlorocinnolin-4-yl)piperazin-1-yl)phenoxy)-N,N-dimethylpropan-1-amine]
